According to US6608185B1, “Substances KF-1040T4A,KF-1040T4B, KF-1040T5A, and KF-1040T5B, and process for producing same” (Kitasato Institute, priority 2002, dated 2003):
Values after ≈ are worked out from the molar mass of the structure shown.

Experiments:
Solubility in solvents = format: physicochemical
[1] = target: diacylglycerol acyltransferase; experiment: Inhibitory action against rat-originated diacylglycerol acyltransferase (rat liver microsomal fraction); format: biochemical; conditions: [1-14C]palmitoyl-CoA, 23° C., 15 minutes
Protocol: (1) Inhibitory Action against Rat-originated Diacylglycerol Acyltransferase
The activity of diacylglycerol acyltransferase was determined in accordance with the method of Mayorek and BarTana, [J. Biol. Chem., 260, 6528-6532 (1985)] with partial modification.
Namely, a microsomal fraction prepared from rat liver was used as the enzyme source. To a 175 mM Tris-HCl buffer (pH 8.0) containing 8 mM of MgCl2, 1 mg/ml of bovine serum albumin and 2.5 mM of diisopropyl fluorophosphate, there were added 0.75 mM of dioleoylglycerol and 30 μM of [1^−14C] palmitoyl-CoA (0.02 μCi) and the total volume was adjusted to 200 μl, whereupon the enzymatic reaction mixture was incubated at 23° C. for 15 minutes. The total lipids were extracted with chloroform/methanol (1/2) mixture and each lipid was separated by a TLC (with Kiselgel GF254 and a developing solvent of petroleum ether/diethyl ether/acetic acid of 80/20/1), followed by measurement of the radioactivity of the triacylglycerol fraction using RI RADIO-SCANNER (manufactured by AMBIS System Inc., U.S.A.) to determine the diacylglycerol acyltransferase activity.

acid sphingomyelinase = target: T1, acid sphingomyelinase (Homo sapiens, UniProt P17405); experiment: Influence on human placenta-originated acid sphingomyelinase; format: biochemical; conditions: human placenta enzyme (Sigma), pH 5.0, 37° C., 30 minutes; read-out: concentration corresponding to 50% inhibition of acid sphingomyelinase (converted)
T1 construct: an acid sphingomyelinase originating from human placenta (a product of Sigma Co.) was used as the enzyme source; purchased Sigma Co; host or cells: human placenta (tissue-derived enzyme)
T1 sequence (P17405 47-631): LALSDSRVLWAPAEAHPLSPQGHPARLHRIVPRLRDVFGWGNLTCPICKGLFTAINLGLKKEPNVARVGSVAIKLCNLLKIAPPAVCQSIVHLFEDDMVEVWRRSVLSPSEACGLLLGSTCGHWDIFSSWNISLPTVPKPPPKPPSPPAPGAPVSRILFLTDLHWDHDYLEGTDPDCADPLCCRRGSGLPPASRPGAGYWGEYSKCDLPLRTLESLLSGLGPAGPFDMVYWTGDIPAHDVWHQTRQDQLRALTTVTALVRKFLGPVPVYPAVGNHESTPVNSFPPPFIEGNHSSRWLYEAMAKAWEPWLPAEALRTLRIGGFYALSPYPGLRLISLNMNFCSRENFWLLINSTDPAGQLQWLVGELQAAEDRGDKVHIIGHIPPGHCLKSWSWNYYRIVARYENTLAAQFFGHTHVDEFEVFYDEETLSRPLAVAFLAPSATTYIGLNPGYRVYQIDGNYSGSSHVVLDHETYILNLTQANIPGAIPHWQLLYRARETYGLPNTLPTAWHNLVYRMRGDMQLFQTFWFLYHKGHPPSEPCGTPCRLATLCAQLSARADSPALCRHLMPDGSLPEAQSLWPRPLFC
Protocol: (4) Influence on Human Placenta-originated Acid Sphingomyelinase
The assessment of the influence of the substances on human placenta-originated acidic sphingomyelinase was performed in accordance with the method of Jones et al. [Biochem. Journal, 195, 373-382 (1981)] with partial modification.
Thus, an acid sphingomyelinase originating from human placenta (a product of Sigma Co.) was used as the enzyme source and thereto were added 250 mM of sodium acetate buffer solution (pH 5.0), 0.1% of NP-40 (a product of Sigma Co.), and 25 μM [N-methyl-^3H] sphingomyelin (0.006 μCi), and the mixture was filled up to a total volume of 50 μl. After reaction at 37° C. for 30 minutes, 200 μl of chloroform/methanol mixture (1/2 in volume ratio) was added thereto to separate the reaction product [^3H] phosphocholine from the starting material [^3H] sphingomyelin. The upper layer was taken up into a […]. The amount of [^3H] phosphocholine was quantitatively determined by a liquid scintillation counter to estimate the acid sphingomyelinase activity.

[2] = tested on: Raji cell originating from human Burkitt lymphoma (triacylglycerol synthesis); experiment: Inhibitory action against synthesis of triacylglycerol in human-originated Raji cells; format: cell-based; conditions: [1-14C]oleic acid, 37° C., 30 minutes; for IC50: Homo sapiens, 0.5 h, read-out: drug concentration corresponding to 50% inhibition of triacylglycerol synthesis
Protocol: (2) Inhibitory Action against Synthesis of Triacylglycerol in Human-originated Cells (Raji Cell originating from Human Burkitt Lymphoma)
The assessment of the influence of the substances on triacylglycerol synthesis was performed in accordance with the method of Tomoda et al. [J. Biol. Chem., 266, 4214-4219 (1991)] using human-originated cells (Raji cell originated from human Burkitt lymphoma). A Raji cell dispersion of 2.7×10^6 cells per milliliter containing […] [1^−14C] oleic acid (0.02 μCi) was filled up to a total volume 200 μl, whereupon the reaction proceeded at 37° C. for 30 minutes. The total lipids were extracted with a chloroform/methanol (2/1) mixture. Then, the activity was measured in the same manner as in the “inhibitory action against rat-originated diacylglycerol-acyltransferase”.
The calculation of the drug concentration corresponding to 50% inhibition of triacylglycerol synthesis gives a value of 10 μg/ml for all the substances KF-1040T4A, KF-1040T4B, KF-1040T5A and KF-1040T5B.

Structure (SMILES)	Solubility in solvents: methanol, benzene, chloroform and ethyl acetate (Solubility in solvents)	Solubility in solvents: water and hexane (Solubility in solvents)	drug concentration corresponding to 50% inhibition of diacylglycerol acyltransferase [1] [µg/mL]	IC50 (acid sphingomyelinase) [µM]	IC50 [2] [µg/mL]	drug concentration corresponding to 50% inhibition of triacylglycerol synthesis [2] [µg/mL]
CCC(C)CC(C)CC(C)C(OC1OC(CO)C(O)C(O)C1O)C(C)/C=C(\C)C(O)C(C)/C=C(\C)C(O)C(C)/C=C(\C)C(=O)OCC(O)C(O)C(O)CO (single isomer, unassigned) [KF-1040T4A]	soluble	slightly soluble	13.2	300	10 (≈ 12.9 µM)	
CCC(C)CC(C)CC(C)C(OC1OC(CO)C(O)C(O)C1O)C(C)/C=C(\C)C(O)C(C)/C=C(\C)C(O)C(C)/C=C(\C)C(=O)OCC(O)C(O)C(O)CO (single isomer, unassigned) [KF-1040T4B]	soluble	slightly soluble	11.6	90.1		10
CCC(C)CC(C)CC(C)C(OC1OC(COC(C)=O)C(O)C(O)C1O)C(C)/C=C(\C)C(O)C(C)/C=C(\C)C(O)C(C)/C=C(\C)C(=O)OCC(O)C(O)C(O)CO (single isomer, unassigned) [KF-1040T5A]	soluble	slightly soluble	18.0	239	10 (≈ 12.2 µM)	
CCC(C)CC(C)CC(C)C(OC1OC(COC(C)=O)C(O)C(O)C1O)C(C)/C=C(\C)C(O)C(C)/C=C(\C)C(O)C(C)/C=C(\C)C(=O)OCC(O)C(O)C(O)CO (single isomer, unassigned) [KF-1040T5B]	soluble	slightly soluble	14.7	59.8		10
